# Laboratory results: PMC10712729, “A Phase I Trial of the Dual MET Kinase/OCT-2 Inhibitor OMO-1 in Metastatic Solid Malignancies Including MET Exon 14 Mutated Lung Cancer” (The Oncologist, 2023)
# “Also recorded” adds a separate entry of the source.
# What was measured:
# [1] = Pharmacokinetics of OMO-1 in plasma, Module 1 Part A; format: in vivo, human
# Experimental: (§1) The starting dose was 100 mg BID.
# (§2) Analysis was performed using PKSolver to define Cmax, trough concentration (Ctrough), AUC∞, AUC0-last, Vd, clearance, elimination half-life (t½), and Tmax of OMO-1.[24] In the paired biopsy analysis, expression of total MET and phosphorylated MET was performed by immunohistochemistry.
# phosphorylated MET = molecular target: T1, phosphorylated MET (Homo sapiens, UniProt P08581, DEL963-1009); test: Paired biopsy analysis, total and phosphorylated MET by immunohistochemistry; format: in vivo; conditions: one patient, NSCLC with MET exon 14 skipping mutation, 200 mg BID
# T1 construct: from tissue; host or cells: paired tumour biopsies (baseline and on-treatment) of an NSCLC patient
# Experimental: as §2
# OCT-2 [2] = molecular target: T2, OCT-2 (Homo sapiens, UniProt O15244); test: Renal function markers (creatinine, Cystatin C, KIM1) as on-target OCT-2 inhibition; format: in vivo
# T2 construct: from tissue; host or cells: patients in vivo (endogenous transporter; serum, plasma and urine markers measured)
# T2 sequence (O15244 1-555): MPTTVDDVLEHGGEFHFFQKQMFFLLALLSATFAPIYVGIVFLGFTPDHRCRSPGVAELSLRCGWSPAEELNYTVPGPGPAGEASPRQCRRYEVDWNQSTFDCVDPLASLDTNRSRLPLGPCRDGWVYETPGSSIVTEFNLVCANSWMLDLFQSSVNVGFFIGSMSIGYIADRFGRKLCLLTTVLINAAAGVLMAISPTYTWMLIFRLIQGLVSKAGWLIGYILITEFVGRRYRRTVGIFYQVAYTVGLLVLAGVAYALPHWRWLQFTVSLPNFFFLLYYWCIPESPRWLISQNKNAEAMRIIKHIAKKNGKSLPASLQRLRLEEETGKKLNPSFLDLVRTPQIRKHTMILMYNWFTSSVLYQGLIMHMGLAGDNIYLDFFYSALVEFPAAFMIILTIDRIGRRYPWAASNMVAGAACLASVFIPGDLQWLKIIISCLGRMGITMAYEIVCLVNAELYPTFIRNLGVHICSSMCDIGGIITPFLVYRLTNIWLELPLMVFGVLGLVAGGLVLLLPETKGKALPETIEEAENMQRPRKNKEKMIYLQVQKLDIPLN
# Experimental: as §1
# OCT-2 [3] = molecular target: T2, OCT-2; test: Plasma tryptophan and kynurenine levels to explore OCT-2 inhibition; format: in vivo
# Experimental: as §1
# METex14-positive NSCLC = test: Preliminary efficacy by RECIST v1.1, Module 1 Part B cohort 1; format: in vivo, human; conditions: OMO-1 monotherapy 200 or 250 mg BID
# Experimental: as §1
# Safety analyses were descriptive.
# [4] = tested on: EGFR mutated NSCLC with acquired MET amplification; format: in vivo, human; conditions: one patient, 200 mg BID with EGFR TKI; led to interruption
# From the text: Module 2 (OMO-1 in combination with EGFR TKI) investigated the preliminary efficacy of OMO-1 in patients with activating EGFR mutated NSCLC and an acquired MET amplification after EGFR TKI treatment.
# [5] = tested on: MET-activated tumor models; conditions: preclinical ref 21; cited from earlier work
# [6] = tested on: organic cation transporter 2 (OCT-2); parameters: method as in PMID 14576340; conditions: cited from earlier work
# [7] = parameters: method as in doi:10.1158/1538-7445.am2015-ct309; conditions: healthy human volunteers ref 26; cited from earlier work
compound,measurement,setting,value
FC(F)(c1ccc2ncccc2c1)c1nnc2ccc(-c3ccncc3)nn12 [OMO-1],"plasma exposure as measured by AUC(0-8 h), dose proportionality",[1]; 100 to 400 mg BID,dose-proportional without accumulation
same,AUC(0-8 h),[1]; RP2D of 250 mg BID,5684 ng·h/mL
same,Cmax,[1]; RP2D of 250 mg BID,1372 ng/mL
same,T½,"[1]; oral, patients",2.5 to 3 h
same,median Tmax,"[1]; range across the dose escalation cohorts, second daily dose 4-5 h after first",5 to 7.8 h
same,phosphorylated MET in on-treatment biopsy,phosphorylated MET,near-complete inhibition
same,total MET levels in on-treatment biopsy,phosphorylated MET,without affecting total MET levels
same,"cystatin C and KIM-1, additional markers for renal function",OCT-2 [2]; monotherapy OMO-1,did also not identify any significant renal function issues
same,overall mean creatinine levels,OCT-2 [2]; throughout the study,within the normal ranges
same,median kynurenin level,"OCT-2 [3]; 8 h post-dose, IQR 396-559, pre-dose 509 ng/mL, P = .57",471 ng/mL
same,mean kyn/trp ratio,"OCT-2 [3]; 8 h post-dose, pre-dose 57, P < .001",49
same,mean tryptophan plasma level,"OCT-2 [3]; cycle 1 day 1, 8 h post-dose, pre-dose 9475 ng/mL, P = .014, 30 patients Module 1",10 605 ng/mL
same,"changes in plasma tryptophan levels and kyn/trp ratio, dependence on dose or Cmax",OCT-2 [3]; in vivo,not dose or Cmax dependent
same,clinical benefit duration of at least 8 weeks,METex14-positive NSCLC,5/10
same,partial response,METex14-positive NSCLC; RECIST v.1.1,No patients; also recorded: no partial response
same,serum Cystatin C increase from baseline,[4],> 1.5 fold
same,tumor growth,[5],complete inhibition of tumor growth
same,inhibition of OCT-2,[6],potent inhibitor
same,renal toxicity,[7],no renal toxicity was observed
